Measured values as given in a melting point compilation (Tetko et al.; mined from patent text by program, amines drawn as free bases though some values may be those of a salt).

melting point | SMILES
52 to 53 °C | CCCCCCCCCCCCCCCCS[C@H]1CCCO[C@H]1CO (relative stereo)
160 to 162 °C | Nc1sc2c(c1C(=O)c1ccccc1)CCNC2
110 to 113 °C | CC(C)COP(C)(=O)CC(O)CN1C(=O)c2ccccc2C1=O (stereo unspecified)
154 to 156 °C | CC(=NC(C#N)=C(N)C#N)c1ccc(Cl)cc1
139 to 141 °C | CNC(=O)c1cnn(C2(C)CCCC2)c1C#N
86 to 87 °C | C[C@@H](CSc1nc2ccccc2cc1-c1ccccc1)NC(=O)OC(C)(C)C
282 to 284 °C | Cc1ccc(S(=O)(=O)N2CCCC(S(=O)(=O)c3cccc(Cl)c3)C2)cc1 (stereo unspecified)
163 to 164 °C | O=C(OCc1ccccc1)N1C[C@@H]2CN(c3ccc(N4C[C@H](CO)OC4=O)cc3)C[C@@H]2C1
150 to 151 °C | COc1cc2c(c(Cl)c1Cl)CCCC2=O
177 to 179 °C | CC(=O)c1ccc(NCc2cc3c(cc2O)CCCO3)cc1
264 to 265 °C | NC(=S)c1sc(N2CCCC2)nc1N
195 to 199 °C | CC(CCC(O)C(C)(C)O)C1CCC2C3CC=C4CC(O)CCC4(C)C3CCC12C (stereo unspecified)
172 to 173 °C | CNC(=O)c1cc(-c2ccc(OC)c(Cl)c2)nn(CC2CC2)c1=O
162 to 164 °C | Cc1ccccc1-c1cc(-c2ccccc2C(=O)O)on1
81.5 to 83 °C | Cc1cc(O)c(SCC2CCCCC2)c(=O)o1
130 to 132 °C | COc1ccc(N2CCN(c3ccc(NC(=O)Oc4ccccc4)nc3)CC2)cc1
70 to 74 °C | Cn1c(-c2cccs2)cnc1[C@H](Cc1ccccn1)N(C=O)c1cc2cc(Cl)ccc2o1
130 to 138 °C | C[C@H]1Oc2cccc(F)c2N(C)C(=O)[C@H]1NC(=O)OC(C)(C)C
148 to 150 °C | COc1cc(C)c(S(C)=O)cc1O (stereo unspecified)
> 250 °C | O=C1N(c2c(Cl)cccc2Cl)Cc2cnc(Nc3ccccc3)nc2N1c1cccc(CCO)c1
> 245 °C | O=C(O)Cn1c(=O)c(=O)[nH]c2cc([N+](=O)[O-])c(-n3ccc(CN4CCN(C(c5ccccc5)c5ccccc5)CC4)c3)cc21
217 to 223 °C | CC1CC2CC(Cc3ccc(O)cc3)CCC2NC1=O (stereo unspecified)
92 to 93 °C | O=C(CCCCCNC(=O)CCCc1ccccc1)NO
158 to 159 °C | O=C(O)COc1ccc(SCc2ccc(-c3ccc(C(F)(F)F)cc3)cc2)c2c1CCC2
84 to 86 °C | OC1CCc2c(Cl)cc(Cl)cc2C1 (stereo unspecified)
91 to 94 °C | CC(C(=O)O)c1cccc(C2(c3ccccc3)OCCO2)c1 (stereo unspecified)

melting point | SMILES
199 to 201 °C | CC1(CN2CCC(n3c(=O)[nH]c4ccccc43)CC2)OCc2ccccc2-n2cccc21 (stereo unspecified)
105 to 110 °C | O=C(SCCC(=O)N1C(C(=O)NO)CSC1c1ccccc1O)c1ccccc1 (stereo unspecified)
135 to 138 °C | COc1ccc2c(c1)CCC1CCNC(=O)C(CCl)=C21 (stereo unspecified)
189 to 190 °C | CC(=O)c1cccc(C2=C(c3ccc(S(C)(=O)=O)cc3)OC(C)(C)C2=O)c1
164 to 165 °C | CCc1c(CNc2cccc(N)n2)c(CC)c(CNc2cccc(N)n2)c(CC)c1CNc1cccc(N)n1
129 to 130 °C | Cc1ccc2c(c1)C(C(=O)Nc1ccccc1)c1ccccc1CO2 (stereo unspecified)
66 to 68 °C | COC(=O)C(O)c1cc2c(cc1Cl)OCO2 (stereo unspecified)
171 to 172 °C | Cc1ccc2c(c1)C(=O)C(=O)N2CC(N)=O
263 to 264 °C | O=C(NCc1cccnc1)c1[nH]c2ccc(Cl)cc2c1S(=O)(=O)c1ccccc1
131 to 132 °C | CCNC(=O)c1c([Si](C)(C)C)ccc(C#C[Si](C)(C)C)c1Cl
164 °C | O=C(NC(=O)c1ccccc1Cl)Nc1ccc(Cl)c(C(F)(F)F)c1
268 to 271 °C | ON=C1c2ccccc2-c2c1c(-n1ccnc1)nc1ccc(Br)cc21
128 to 129 °C | CC(C)(C)CN1C(=O)C(=O)N(c2ccc(C#N)cc2)C1=S
78 to 81 °C | COc1cc(OC2CCN(Cc3cccnc3)CC2)ccc1CC(=O)N1CCN(c2ccccc2C)CC1C(N)=O (stereo unspecified)
132 to 135 °C | O=C1CCNc2c1cc(Cl)cc2[N+](=O)[O-]
135 °C | CC(=O)Nc1ccc(C=C2c3ccccc3CCc3ccccc32)cc1
46 to 49 °C | c1ccc(Oc2ccncc2)cc1
128 to 130 °C | COC(C(N)=O)C(=O)O (stereo unspecified)
208 °C | CC1(C)C=Cc2c(ccc3c2C(=O)C(O)=CC3=O)O1
228 to 229 °C | CC1=CC(c2cccs2)(C(C)C(=O)O)Nc2ccccc21 (stereo unspecified)
65 to 66 °C | CCSC(C)C(=O)N(CC)c1cn(-c2cccnc2)nc1Cl (stereo unspecified)
132 to 136 °C | O=C(c1cccc(Cl)c1)N1CCc2cc(S(=O)(=O)N3CC(c4ccccc4)NC3=O)ccc21 (stereo unspecified)
51 to 53 °C | O=Cc1cccc(OCCc2coc(-c3ccccc3)n2)c1
170 to 172 °C | CN1CCC[C@H]1c1cnc(Cl)c(Cl)c1C(O)(c1ccccc1)c1ccccc1
97 °C | CCOC(=O)c1cc(C)cc([N+](=O)[O-])c1O

Further lines, the compound ahead of its results:

SMILES | melting point
CON=C(C(C)=C(ON)c1ccccc1C(=NOC)C(=O)OC)c1ccc(Cl)cc1 | 115 to 117 °C
Nc1ccc(C2=NN=C(c3ccccn3)N(C(=O)c3ccccc3)N2)nc1 | 223 to 225 °C
CCOCc1nc2c(N)nc3cc(OCC(=O)N4CCOCC4)ccc3c2n1CC(C)(C)O | 209 to 211 °C
CC1(C)CCC(C)(C)c2cc(COc3cccc(C(=O)O)c3-c3ccc(CCO)cc3)ccc21 | 201 to 203 °C
CCC(=O)CC(=O)c1ccc(C(=O)CC(=O)CC)cc1 | 122 to 124 °C
COc1ccc(C=C2c3ccccc3C(=O)c3ccccc32)cc1OCC(=O)O | 227 to 230 °C
COC(=O)COc1ccc(OCCC2CCN(c3ccncc3)CC2)cc1 | 86 to 88 °C
O=C(Nc1ccc(N2CCOCC2)c(C(F)(F)F)c1)c1ccc(F)c(OCc2cccnc2)c1 | 160 to 161 °C
CC(C)(C)[Si](C)(C)Oc1ccc2cc(Br)ccc2c1 | 62 to 63 °C
COc1ccc(C(C)=NOCc2cccc(F)c2)cc1F | 67 °C
COc1cc(CCCC#N)ccc1OCc1nc(-c2ccco2)oc1C | 94 to 95 °C
O=C(O)Cc1ccc(NCCNC(=O)C2Cc3ccccc3N2S(=O)(=O)c2ccc(-c3cc(C(F)(F)F)ccc3Cl)cc2)cc1 (stereo unspecified) | 110 to 118 °C
CC(=O)NC1CCCc2sc(C(C)=O)cc21 (stereo unspecified) | 168 to 172 °C
CN1CCC(c2c[nH]c(-c3ccc(F)cc3)c2-c2ccncc2)=CC1Cc1ccccc1 (stereo unspecified) | 198 to 200 °C
CC(NC(=O)CN1CCCC1=O)C(=O)N1CC(=O)NC1(C)C (stereo unspecified) | 198 to 200 °C
COC(=O)COc1ccc(C(=O)NN(C)C(=O)c2ccc(C(N)=S)cc2)cc1 | 169 to 170 °C
O=C(O)C(=O)c1ccc(OCCOc2ccccc2F)cc1 | 108 to 110 °C
O=C(C(CCO)N1CCCC1=O)N1CCOCC1 (stereo unspecified) | 105 to 106 °C
O=c1n(CO)c2cccnc2n1-c1ccc2c(c1)OCO2 | 268 °C
FC(F)(F)c1cc(Cl)c(-n2cnc(C(F)(F)C(F)(F)Cl)c2)c(Cl)c1 | 101 °C
CS(=O)(=O)OCC(c1ccccc1)c1ccccc1 | 101 to 102 °C
Cc1sc(C(N)=O)c2c1-c1c(cnn1Cc1ccccc1)CC2 | 205 to 206 °C
CC1(C)OC(=O)N(C(=O)/C=C/c2ccccc2)[C@@H]1c1ccccc1 | 149 °C
CCOCc1nc2c(N)nc3cc(Br)cnc3c2n1CC(C)(C)NC(=O)OC(C)(C)C | 176 to 178 °C
O=C(c1ccc(O)cc1O)c1ccccc1F | 109 to 111 °C

SMILES | melting point
CCCC/C=C/C(=O)N(C)c1ccc(S(=O)(=O)NC2CCCCCC2)cc1 | 114 °C
NS(=O)(=O)c1ccsc1CO | 85 to 89 °C
Cc1cccc2cc(C3CCN(C)CC3)[nH]c(=O)c12 | 200 to 202 °C
CCOC(=O)C1OC1c1ccc(OC)cc1 (stereo unspecified) | 40 to 43 °C
CN1CC(C(=O)CN2CCCCC2)CC2c3cccc4[nH]cc(c34)CC21 (stereo unspecified) | 168 to 170 °C
CCCC1(C)SC(=NOC(=O)NC)N=C1C (stereo unspecified) | 66 to 69 °C
O=c1ccoc2cc(OCCCCl)ccc12 | 72 to 73 °C
CCCCCCc1ccc(-c2cnn(C(C)(C)Cc3ccc(C)cc3)c2O)cc1 | 149 to 151 °C
Cc1nc2cc(C(=O)NC(C)C)c(NC(=O)c3cc(C(F)(F)F)nn3-c3ncccc3Cl)c(Cl)c2nc1C | 243 to 244 °C
CC(=O)NNCC1CC2c3cccc4[nH]cc(c34)CC2N(C)C1 (stereo unspecified) | 213 to 215 °C
O=C1c2ccccc2C(=O)N1CCCn1cc(S(=O)(=O)c2ccccc2)c2ccccc21 | 205 to 206 °C
O=C1C(O)N=C(c2ccccc2F)c2ccccc2N1C1CCNCC1 (stereo unspecified) | 190 to 192 °C
NC(=O)c1ccc(CCC[N@]2C[C@@H]2c2ccccc2)s1 | 117 to 119 °C
COc1ccc(C(=O)CBr)cc1C12CC3CC(CC(C3)C1)C2 | 140 to 141 °C
CCOC(=O)c1cnc2snc(C)c2c1N(Cc1cccnc1)S(=O)(=O)c1ccc(OC)cc1 | 142 to 144 °C
O=C(CCCC1CCCCC1)N[C@H]1CO[C@H]2[C@@H]1OC[C@@H]2NC(=O)C1CC1 | 182 °C
COc1ccc(C(=O)Nc2c(C)c(C)c3c(c2C)C(c2ccc(C(C)C)cc2)C(C)(C)O3)cc1OC (stereo unspecified) | 171 to 173 °C
CCCC12CCC(=O)C=C1c1c(cc(OC)c(Cl)c1Cl)C2=O (stereo unspecified) | 167 to 169 °C
CCCOc1ccc(C2=NN(C(=O)Nc3ccc(OC(F)(F)F)cc3)CC2N(C)C(=O)OC)cc1 (stereo unspecified) | 153 to 155 °C
COc1cc(C(=O)N[C@@H]2CCN(C)C2)ccc1Nc1ncc2c(n1)N(C1CCCCC1)CC(F)(F)C(=O)N2C | 98 to 99 °C
O=C(NCO)c1cncc([N+](=O)[O-])c1 | 145 to 146 °C
Cc1ccc(S(=O)(=O)OCC2COc3ccc4nc(C)c(C)nc4c3O2)cc1 (stereo unspecified) | 153 to 155 °C
COc1cccc2c(Nc3ccc(C(=O)NC4CCN(Cc5ccccc5)CC4)cc3)c(C(N)=O)cnc12 | 154 to 162 °C
COc1cc(-c2csc(NCCCCCC(=O)Nc3ccc(C(F)(F)F)cc3)n2)cc([N+](=O)[O-])c1O | 160 to 162 °C
NC(=O)c1nc(-c2cccc(O)c2)nc2c1[nH]c(=O)n2-c1ccc(C(F)(F)F)cc1 | 360 to 364 °C
